# Measured values as given in patent US20210179632A1, “THIENOPIPERIDINE DERIVATIVE AND USE THEREOF” (JIANGSU TASLY DIYI PHARMACEUTICAL CO. LTD., priority 2013, published 2021).
# Test system: platelet aggregation induced by ADP
# Assay: Platelet aggregation induced by ADP in platelet-rich plasma of rats drawn 2 hours after dosing (NJ4 Semi-Platelet Aggregation Analyzer)
# Format: in vivo
# Conditions: male Wistar rats, 3 mg/kg as suspension in 0.25 wt % CMC, blood drawn 2 hours after administration, negative control 61.22 ± 4.73, * P < 0.001
# From the text: The maximum aggregation rate of irreversible condensed phase can be used to evaluate the effect of subject products on coagulation function. The experiment used NJ4 type Semi-Platelet Aggregation Analyzer of precil company, to survey the inhibitory effect of the subject products provided by Tasly Holding Group. Co. Ltd on platelet aggregation. • Materials • Animals: male Wistar rats, body weight 230-250 g, bought from Beijing Vital River Laboratory • Animal Technology Co. Ltd., animal certification number:SCXK ( ? ) 2007-0001. • Reagents: ADP, bought from Sigma company; clopidogrel was prepared referring to the method in Chinese Journal of Medicinal Chemistry 2007, 17 (3) 163-165; prasugrel was prepared referring to the method in Chinese Journal of Pharmaceuticals 2012, 43 (8) 647-649; vicagrel was prepared referring to the method in Journal of Medicinal Chemistry, 2012, 55(7), 3342-3352. • Subject products: 7 subject products were all provided by Tasly Holding Group. Co. Ltd. • Administration dosage: subject products were suspensed in CMC in a concentration of 0.25 wt %, were administered in a dosage of 3 mg/kg body weight, the administration volume was 2 ml.
# 2 hours after administering drugs to the rats, anesthesia with mebubarbital, draw blood from abdominal aorta, anticoagulation with sodium citrate 1:9. Obtained platelet-rich plasma and platelet-poor plasma by centrifugation, the volume ratio of the two was platelet-poor plasma:platelet-rich plasma=3:1.
row,Structure (SMILES),The maximum aggregation rate of platelet irreversible condensed phase
1,COC(=O)[C@H](c1ccccc1Cl)N1CCc2sc(OP(=O)(OC(C)C)OC(C)C)cc2C1 [TSC-3],38.7 ± 4.27*
2,"COC(=O)[C@H](c1ccccc1Cl)N1CCc2sc(OC(C)=O)cc2C1 [Vicagrel, vicagrel, reference compound]",32.36 ± 5.14*
3,COC(=O)[C@H](c1ccccc1Cl)N1CCc2sc(OCOP(=O)(O)O)cc2C1 [TSC-8],32.7 ± 9.21*
4,COC(=O)[C@H](c1ccccc1Cl)N1CCc2sc(OCOP(=O)(OC(C)(C)C)OC(C)(C)C)cc2C1 [TSC-7],39.2 ± 6.16*
5,COC(=O)[C@H](c1ccccc1Cl)N1CCc2sc(OP(=O)(OCC(Cl)(Cl)Cl)OCC(Cl)(Cl)Cl)cc2C1 [TSC-5],39.1 ± 5.66*
6,CCOP(=O)(OCC)Oc1cc2c(s1)CCN([C@H](C(=O)OC)c1ccccc1Cl)C2 [TSC-2],41.7 ± 7.43*
7,COC(=O)[C@H](c1ccccc1Cl)N1CCc2sc(OP(=O)(Oc3ccccc3)Oc3ccccc3)cc2C1 [TSC-4],46.5 ± 8.16*
8,COC(=O)[C@H](c1ccccc1Cl)N1CCc2sc(OP(=O)(O)O)cc2C1 [TSC-6],29.6 ± 5.33*
9,"COC(=O)[C@H](c1ccccc1Cl)N1CCc2sccc2C1 [Clopidogrel, reference compound]",46.77 ± 8.28*
10,"CC(=O)Oc1cc2c(s1)CCN(C(C(=O)C1CC1)c1ccccc1F)C2 (stereo not drawn) [Prasugrel, prasugrel, reference compound]",20.72 ± 18.84*
11,COC(=O)[C@H](c1ccccc1Cl)N1CCc2sc(OP(=O)(OC)OC)cc2C1 [TSC-1],45.8 ± 3.55*
12,COC(=O)[C@H](c1ccccc1Cl)N1CCc2sc(OS(=O)(=O)O)cc2C1 [TSC-9],25.7 ± 3.25*
